Measurements as given in DBAASP.
Converted amounts (≈) assume the structure as drawn.

Assays:
Assay in all cases: ≥ marks a high value that may be exact or a test limit, other limits are often not marked, values filed in µg/mL are converted to µM
[1] = system: Pseudomonas aeruginosa ATCC 90271
Salmonella typhimurium = system: Salmonella typhimurium
[2] = system: Saccharomyces cerevisiae ATCC 24860
[3] = system: Salmonella enterica subsp. enterica serovar Typhimurium ATCC 13311
[4] = system: Aspergillus fumigatus ATCC 16424
Shigella sonnei = system: Shigella sonnei
[5] = system: Shigella flexneri ATCC 25875
[6] = system: Helicobacter pylori ATCC 43526
Streptococcus pyogenes = system: Streptococcus pyogenes
Campylobacter jejuni = system: Campylobacter jejuni
[7] = system: Staphylococcus aureus ATCC 29213
[8] = system: Shigella sonnei ATCC 25931
Pseudomonas aeruginosa = system: Pseudomonas aeruginosa
[9] = system: Campylobacter jejuni ATCC 43051
Shigella flexneri = system: Shigella flexneri
[10] = system: Aspergillus niger ATCC 20611
Staphylococcus aureus = system: Staphylococcus aureus
[11] = system: Escherichia coli ATCC 15224
Escherichia coli = system: Escherichia coli
[12] = system: Candida albicans ATCC 32354
[13] = system: Streptococcus pyogenes ATCC 10389
[14] = system: Aspergillus flavus ATCC 46283
[15] = system: Trichoderma viride ATCC 36316

MIC [1]: 1.54 µM (≈ 4.4 µg/mL)
MIC (Salmonella typhimurium): 1.54 µM (≈ 4.4 µg/mL)
MIC [2]: 4.97 µM (≈ 14.2 µg/mL)
MIC [3]: 1.72 µM (≈ 4.9 µg/mL)
MIC [4]: 3.68 µM (≈ 10.5 µg/mL)
MIC (Shigella sonnei): 1.65 µM (≈ 4.7 µg/mL)
MIC [5]: 1.47 µM (≈ 4.2 µg/mL)
MIC [6]: 1.61 µM (≈ 4.6 µg/mL)
MIC (Streptococcus pyogenes): 2.7 µM (≈ 7.7 µg/mL)
MIC (Campylobacter jejuni): 1.54 µM (≈ 4.4 µg/mL)
MIC [7]: 2.56 µM (≈ 7.3 µg/mL)
MIC [8]: 1.58 µM (≈ 4.5 µg/mL)
MIC (Pseudomonas aeruginosa): 1.33 µM (≈ 3.8 µg/mL)
MIC [9]: 1.4 µM (≈ 4 µg/mL)
MIC (Shigella flexneri): 1.65 µM (≈ 4.7 µg/mL)
MIC [10]: 3.15 µM (≈ 9 µg/mL)
MIC (Staphylococcus aureus): 3.01 µM (≈ 8.6 µg/mL)
MIC [11]: 1.3 µM (≈ 3.7 µg/mL)
MIC (Escherichia coli): 1.26 µM (≈ 3.6 µg/mL)
MIC [12]: 3.96 µM (≈ 11.3 µg/mL)
MIC [13]: 2.63 µM (≈ 7.5 µg/mL)
MIC [14]: 3.71 µM (≈ 10.6 µg/mL)
MIC [15]: 4.62 µM (≈ 13.2 µg/mL)
Structure (SMILES): CC[C@H](C)[C@H](NC(=O)CNC(=O)[C@H](CCC(N)=O)NC(=O)CNC(=O)[C@@H](NC(=O)[C@H](CCCCN)NC(=O)[C@H](CCC(=O)O)NC(=O)[C@@H](NC(=O)[C@H](CCCCN)NC(=O)[C@H](CCCCN)NC(=O)[C@H](Cc1ccccc1)NC(=O)[C@H](CC(C)C)NC(=O)[C@H](CCCCN)NC(=O)[C@H](Cc1c[nH]c2ccccc12)NC(=O)[C@@H](N)CCCCN)[C@@H](C)CC)C(C)C)C(=O)NCC(=O)N[C@@H](C)C(=O)N[C@H](C(=O)N[C@@H](CC(C)C)C(=O)N[C@@H](CCCCN)C(=O)N[C@H](C(=O)N[C@@H](CC(C)C)C(=O)N[C@H](C(=O)N[C@H](C(=O)NCC(=O)N[C@@H](CC(C)C)C(N)=O)[C@@H](C)O)[C@@H](C)O)C(C)C)C(C)C [KWKLFKKIEKVGQGIGAVLKVLTTGL]
